Data: US10624946B2, “Treating liver diseases” (Mayo Foundation for Medical Education and Research, priority 2005, dated 2020)

How the values were obtained:
[1] = tested on: cAMP levels in bile ducts and serum of PCK rats; test: cAMP levels in freshly isolated bile ducts and serum of PCK rats treated with octreotide; type: in vivo, rat
Method: The concentration of cAMP was measured in freshly isolated and cultured bile ducts and in serum. Serum was diluted 1:10 before assay. Cultured bile ducts were first released from the gel by adding 0.4 mL of high-activity type XI collagenase for 45 min. at 37° C. and washing twice with medium. cAMP concentrations were determined using the Bridge-It™ cAMP designer assay (Mediomics, LLC, St. Louis, Mo.). Results were expressed as pmol per μg of DNA. The amount of DNA in a single IBDU was determined using the DNeasy Tissue Kit (QIAGEN Inc., Valencia, Calif.).
(§1) Each group was divided into two subgroups. […] Each animal was injected intraperitoneally every 12 hours. […] The control groups received an equal volume of saline.

PCK rats [2] = test: Body, liver and kidney weight in PCK rats treated with octreotide; type: in vivo, rat
Method: as §1

PCK rats [3] = test: Hepatic and renal cyst volume and fibrosis score in PCK rats treated with octreotide; type: in vivo, rat
Method: (§2) Three week old PCK rats (n=60) were divided into five groups (three animals of each gender per treatment group). Each group was divided into two subgroups. […] Each animal was injected intraperitoneally every 12 hours. […] The control groups received an equal volume of saline.
(§3) At 4, 8, 12 and 16 weeks of age, animals were anesthetized with pentobarbital (50 mg/kg body weight, ip). Blood was collected by cardiac puncture for determination of hepatic and renal laboratory parameters and cAMP levels. Liver and kidney tissue sections (5 μm) were stained with hematoxylin-eosin and picrosirius red for analysis using light microscopy. Renal and hepatic fibrosis and cystic scores were measured using Meta-Morph software (Universal Imaging, West Chester, Pa., USA), a light microscope with a color digital camera (Nikon DXM 1200), and a Pentium IBM-compatible computer (Del OptiPlex). To measure the volume of a cyst or fibrosis, a colored threshold was applied at a level that allowed cystic tissue to be distinguished from non-cystic tissue and picrosirius red-positive stained fibrotic tissue to be distinguished from the background. The cystic and fibrotic scores were expressed as a percentage of total tissue.

[4] = target: somatostatin receptor 2 (SSTR2) (Homo sapiens, UniProt P30874); conditions: Froidevaux and Eberle 2002; cited from earlier work
PCK rats [5] = test: Hepatic and renal laboratory parameters in PCK rats treated with octreotide; conditions: for Alkaline Phosphatase / Aspartate Aminotransferase / Bilirubin Direct / Bilirubin Total / Blood Urea Nitrogen / Creatinine / Protein total: Octreotide (10 μg)
Method: as §2, §3

SSTR3 = SSTR3 (Homo sapiens, UniProt P32745); conditions: Froidevaux and Eberle 2002; cited from earlier work
[6] = 100 μg/kg, 4 weeks, vs 10 μg/kg
[7] = octreotide-treated vs saline-treated PCK rats
[8] = Female PCK rats, Group I, 4 weeks of treatment, Octreotide (10 μg)
[9] = Female PCK rats, Group II, 8 weeks of treatment, Octreotide (10 μg)
[10] = Female PCK rats, Group III, 12 weeks of treatment, Octreotide (10 μg)
[11] = Female PCK rats, Group IV, 16 weeks of treatment, Octreotide (10 μg)
[12] = Female PCK rats, HD, 4 weeks of treatment, Octreotide (100 μg)
[13] = Male PCK rats, Group I, 4 weeks of treatment, Octreotide (10 μg)
[14] = Male PCK rats, Group II, 8 weeks of treatment, Octreotide (10 μg)
[15] = Male PCK rats, Group III, 12 weeks of treatment, Octreotide (10 μg)
[16] = Male PCK rats, Group IV, 16 weeks of treatment, Octreotide (10 μg)
[17] = Male PCK rats, HD, 4 weeks of treatment, Octreotide (100 μg)
[18] = octreotide 10 μg/kg, 4 to 16 weeks
[19] = Female PCK rats, Group I, 4 weeks of treatment
[20] = Female PCK rats, Group II, 8 weeks of treatment
[21] = Female PCK rats, Group III, 12 weeks of treatment
[22] = Female PCK rats, Group IV, 16 weeks of treatment
[23] = Female PCK rats, HD, 4 weeks of treatment
[24] = Male PCK rats, Group I, 4 weeks of treatment
[25] = Male PCK rats, Group II, 8 weeks of treatment
[26] = Male PCK rats, Group III, 12 weeks of treatment
[27] = Male PCK rats, Group IV, 16 weeks of treatment
[28] = Male PCK rats, HD, 4 weeks of treatment

somatostatin receptor 2 (SSTR2), sequence (P30874 whole entry, species assumed): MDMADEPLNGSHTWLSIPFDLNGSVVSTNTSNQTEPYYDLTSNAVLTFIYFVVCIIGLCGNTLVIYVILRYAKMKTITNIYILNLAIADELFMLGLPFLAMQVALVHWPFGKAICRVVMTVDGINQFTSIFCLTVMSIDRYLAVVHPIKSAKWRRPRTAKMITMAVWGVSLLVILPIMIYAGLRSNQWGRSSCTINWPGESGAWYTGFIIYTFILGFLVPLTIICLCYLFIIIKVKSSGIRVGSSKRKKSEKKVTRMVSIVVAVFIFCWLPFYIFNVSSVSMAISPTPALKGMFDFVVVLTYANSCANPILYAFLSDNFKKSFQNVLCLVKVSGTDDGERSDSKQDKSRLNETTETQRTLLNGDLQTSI
SSTR3, sequence (P32745 whole entry, species assumed): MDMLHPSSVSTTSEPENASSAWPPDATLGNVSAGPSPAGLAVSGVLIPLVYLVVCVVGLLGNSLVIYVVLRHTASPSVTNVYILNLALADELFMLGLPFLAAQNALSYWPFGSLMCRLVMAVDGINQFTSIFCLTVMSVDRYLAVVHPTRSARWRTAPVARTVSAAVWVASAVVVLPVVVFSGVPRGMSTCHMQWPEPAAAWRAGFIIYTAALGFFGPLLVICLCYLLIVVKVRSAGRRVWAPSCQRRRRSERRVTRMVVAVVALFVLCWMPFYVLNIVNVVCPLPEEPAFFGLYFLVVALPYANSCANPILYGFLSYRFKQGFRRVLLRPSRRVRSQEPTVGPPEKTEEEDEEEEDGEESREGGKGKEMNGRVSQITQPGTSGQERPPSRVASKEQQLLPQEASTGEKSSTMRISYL

## C[C@@H](O)[C@@H]1NC(=O)[C@H](CCCCN)NC(=O)[C@@H](Cc2c[nH]c3ccccc23)NC(=O)[C@H](Cc2ccccc2)NC(=O)[C@@H](NC(=O)[C@H](N)Cc2ccccc2)CSSC[C@@H](C(=O)N[C@H](CO)[C@@H](C)O)NC1=O [Octreotide, octreotide]
[1]; [6]
  cAMP concentration in bile duct and serum at higher dose: to an even greater extent
[1]; [7]
  cAMP levels in freshly isolated bile ducts: lowered
  cAMP levels in serum: lowered
PCK rats [2]; [6]
  effect on liver and kidney weights at higher dose: more significant effect
PCK rats [2]; [8]
  Kidney weight: 1.31 ± 0.04 % body weight
  Kidney weight, decrease (↓) vs saline: (↓11.8%)
  Liver weight: 5.34 ± 00.24 % body weight
  Liver weight, decrease (↓) vs saline: (↓10.5%)
PCK rats [2]; [9]
  Kidney weight: 1.35 ± 0.06 % body weight
  Kidney weight, decrease (↓) vs saline: (↓15.0%)
  Liver weight: 5.37 ± 0.22 % body weight
  Liver weight, decrease (↓) vs saline: (↓15.8%)
PCK rats [2]; [10]
  Kidney weight: 1.42 ± 0.11 % body weight
  Kidney weight, decrease (↓) vs saline: (↓17.9%)
  Liver weight: 5.43 ± 0.24 % body weight
  Liver weight, decrease (↓) vs saline: (↓18.8%)
PCK rats [2]; [11]
  Kidney weight: 1.48 ± 0.13 % body weight
  Kidney weight, decrease (↓) vs saline: (↓20.6%)
  Liver weight: 5.62 ± 0.25 % body weight
  Liver weight, decrease (↓) vs saline: (↓21.9%)
PCK rats [2]; [12]
  Kidney weight: 1.14 ± 0.07 % body weight
  Kidney weight, decrease (↓) vs saline: (↓18.6%)
  Liver weight: 4.7 ± 0.35 % body weight
  Liver weight, decrease (↓) vs saline: (↓19.1%)
PCK rats [2]; [13]
  Kidney weight: 1.43 ± 0.04 % body weight
  Kidney weight, decrease (↓) vs saline: (↓11.2%)
  Liver weight: 4.76 ± 0.07 % body weight
  Liver weight, decrease (↓) vs saline: (↓9.0%)
PCK rats [2]; [14]
  Kidney weight: 1.52 ± 0.11 % body weight
  Kidney weight, decrease (↓) vs saline: (↓14.6%)
  Liver weight: 5.24 ± 0.57 % body weight
  Liver weight, decrease (↓) vs saline: (↓12.8%)
PCK rats [2]; [15]
  Kidney weight: 1.53 ± 0.15 % body weight
  Kidney weight, decrease (↓) vs saline: (↓16.8%)
  Liver weight: 5.31 ± 0.46 % body weight
  Liver weight, decrease (↓) vs saline: (↓17.2%)
PCK rats [2]; [16]
  Kidney weight: 1.57 ± 0.12 % body weight
  Kidney weight, decrease (↓) vs saline: (↓18.9%)
  Liver weight: 5.64 ± 0.14 % body weight
  Liver weight, decrease (↓) vs saline: (↓19.9%)
PCK rats [2]; [17]
  Kidney weight: 1.27 ± 0.13 % body weight
  Kidney weight, decrease (↓) vs saline: (↓19.3%)
  Liver weight: 4.18 ± 0.11 % body weight
  Liver weight, decrease (↓) vs saline: (↓15.1%)
PCK rats [2]; each group studied
  liver and kidney weights vs saline: significantly decreased
PCK rats [2]; male or female PCK rats
  body weight vs saline-treated: No differences
PCK rats [3]; higher dose (100 μg/kg, 4 weeks)
  cystic volume and fibrosis score in liver and kidney at higher dose: even more significant reduction
PCK rats [3]; octreotide 10 μg/kg
  hepatic fibrosis: significant reduction
  renal fibrosis: significant reduction
PCK rats [3]; [18]
  cystic volume in kidney: decreased consistently and progressively
  cystic volume in liver: decreased consistently and progressively
[4]
  binding affinity: high affinity
PCK rats [5]; [19]
  Alkaline Phosphatase: 238.5 ± 23.5 U/L
  Aspartate Aminotransferase: 135.0 ± 11.4 U/L
  Bilirubin Direct: 0.1 mg/dL
  Bilirubin Total: 0.2 mg/dL
  Blood Urea Nitrogen: 16.7 ± 0.3 mg/dL
  Creatinine: 0.55 ± 0.06 mg/dL
  Protein total: 5.70 ± 0.20 g/dL
PCK rats [5]; [20]
  Aspartate Aminotransferase: 211.2 ± 48.4 U/L
  Bilirubin Direct: 0.1 mg/dL
  Bilirubin Total: 0.23 ± 0.03 mg/dL
  Blood Urea Nitrogen: 15.7 ± 1.2 mg/dL
  Creatinine: 0.57 ± 0.03 mg/dL
  Protein total: 5.53 ± 0.18 g/dL
PCK rats [5]; [21]
  Alkaline Phosphatase: 237.0 ± 22.1 U/L
  Aspartate Aminotransferase: 207.5 ± 31.5 U/L
  Bilirubin Direct: 0.1 mg/dL
  Bilirubin Total: 0.2 mg/dL
  Blood Urea Nitrogen: 20.5 ± 0.5 mg/dL
  Creatinine: 0.6 mg/dL
  Protein total: 5.2 ± 0.17 g/dL
PCK rats [5]; [22]
  Alkaline Phosphatase: 156.7 ± 4.3 U/L
  Aspartate Aminotransferase: 165.0 ± 36.46 U/L
  Bilirubin Direct: 0.1 mg/dL
  Bilirubin Total: 0.2 mg/dL
  Blood Urea Nitrogen: 20.5 ± 0.9 mg/dL
  Creatinine: 0.63 ± 0.03 mg/dL
  Protein total: 5.6 ± 0.08 g/dL
PCK rats [5]; [23]
  Alkaline Phosphatase: 292.5 ± 14.3 U/L
  Aspartate Aminotransferase: 197.4 ± 25.7 U/L
  Bilirubin Direct: 0.1 mg/dL
  Bilirubin Total: 0.2 mg/dL
  Blood Urea Nitrogen: 17.0 ± 2.6 mg/dL
  Creatinine: 0.6 mg/dL
  Protein total: 5.3 ± 0.12 g/dL
PCK rats [5]; [24]
  Alkaline Phosphatase: 264.5 ± 41.5 U/L
  Aspartate Aminotransferase: 212.7 ± 41.1 U/L
  Bilirubin Direct: 0.1 mg/dL
  Bilirubin Total: 0.17 ± 0.0 mg/dL
  Blood Urea Nitrogen: 16.0 ± 0.6 mg/dL
  Creatinine: 0.49 ± 0.04 mg/dL
  Protein total: 5.74 ± 0.19 g/dL
PCK rats [5]; [25]
  Alkaline Phosphatase: 305.3 ± 20.4 U/L
  Aspartate Aminotransferase: 188.1 ± 20.6 U/L
  Bilirubin Direct: 0.1 mg/dL
  Bilirubin Total: 0.2 mg/dL
  Blood Urea Nitrogen: 18.3 ± 1.6 mg/dL
  Creatinine: 0.6 mg/dL
  Protein total: 5.22 ± 1.4 g/dL
PCK rats [5]; [26]
  Alkaline Phosphatase: 210.5 ± 24.5 U/L
  Aspartate Aminotransferase: 181.7 ± 39.2 U/L
  Bilirubin Direct: 0.1 mg/dL
  Bilirubin Total: 0.3 mg/dL
  Blood Urea Nitrogen: 21.5 ± 1.5 mg/dL
  Creatinine: 0.6 mg/dL
  Protein total: 5.2 ± 0.03 g/dL
PCK rats [5]; [27]
  Alkaline Phosphatase: 189.5 ± 18.5 U/L
  Aspartate Aminotransferase: 145.1 ± 49.51 U/L
  Bilirubin Direct: 0.1 mg/dL
  Bilirubin Total: 0.2 mg/dL
  Blood Urea Nitrogen: 20.3 ± 0.8 mg/dL
  Creatinine: 0.65 ± 0.05 mg/dL
  Protein total: 5.4 ± 0.35 g/dL
PCK rats [5]; [28]
  Alkaline Phosphatase: 276.8 ± 31.2 U/L
  Aspartate Aminotransferase: 191.0 ± 24.4 U/L
  Bilirubin Direct: 0.1 mg/dL
  Bilirubin Total: 0.2 mg/dL
  Blood Urea Nitrogen: 17.1 ± 1.2 mg/dL
  Creatinine: 0.5 mg/dL
  Protein total: 5.4 ± 0.15 g/dL
PCK rats [5]; any dose administered (10 or 100 μg/kg ip every 12 hours)
  hepatic or renal function: did not affect
SSTR3
  binding affinity: low affinity
